Drawing on patent publication US12677832B2, “Oxadiazole compounds for controlling or preventing phytopathogenic fungi” (PI INDUSTRIES LTD., priority 2019, dated 2026), this text covers inhibition of growth, pest or weed control and control for 28 compounds.

One experiment concerns Colletotrichum capsici. In words: Colletotrichum capsici (Anthracnose) radial growth on potato dextrose agar. The experiment is classed as cell-based. As to conditions: Colletotrichum truncatum, 168 h, radial growth after seven days compared to untreated control.
The test system of another experiment is Alternaria solani. In words: Alternaria solani (Early Blight of Tomato/Potato) radial growth on potato dextrose agar. The class given is cell-based. The note with it: 168 h, radial growth after seven days compared to untreated control.
Another experiment concerns Pyricularia oryzae. As to the kind of experiment: microbe, parasite or virus in culture. The note with it: 168 h, read-out: control. The class given is cell-based.
The next experiment relates to Phakopsora pachyrhizi. As to the kind of experiment: Phakopsora pachyrhizi Test in Soybean (preventive spray). As to conditions: preventive spray on Soybean plants, inoculated one day after treatment, disease severity vs untreated control. The class given is in vivo. As for the experimental part:
Example 7: Phakopsora pachyrhizi Test in Soybean Compounds were dissolved in 2% dimethyl sulfoxide/acetone and then mixed with water containing an emulsifier to a calibrated spray volume of 50 mL. This 50 mL spray solution was poured into spray bottles for further applications. To test the preventive activity of compounds, healthy young Soybean plants, raised in the greenhouse, were sprayed with the active compound preparation at the stated application rates inside the spray cabinets using hollow cone nozzles. One day after treatment, the plants were inoculated with a spore suspension containing 2×10^5Phakopsora pachyrhizi conidia. The inoculated plants were then kept in a greenhouse chamber at 22-24° C. temperature and 80-90% relative humidity for disease expression. A visual assessment of the compound's performance was carried out by rating the disease severity (0-100% scale) on treated plants 3, 7, 10 and 15 days after application. Efficacy (% control) of the compounds was calculated by comparing the disease rating in the treatment with the one of the untreated control. The sprayed plants were also assessed for plant compatibility by recording symptoms like necrosis, chlorosis and stunting.

In another experiment the test system is Botrytis cinerea. In words: Botrytis cinerea (Gray Mold) radial growth on potato dextrose agar. The class given is cell-based. As to conditions: 300 ppm; radial growth after seven days compared to untreated control.

The compound `O=C(CS(=O)(=O)c1nccs1)c1ccc(-c2noc(C(F)(F)F)n2)cc1` [Compound 107, 2-(thiazol-2-ylsulfonyl)-1-(4-(5-(trifluoromethyl)-1,2,4-oxadiazol-3-yl)phenyl)ethan-1-one] displayed an inhibition of growth at 300 ppm with Colletotrichum capsici of at least 70%. The compound `COc1ccc([S+]([O-])CC(=O)c2ccc(-c3noc(C(F)(F)F)n3)cn2)cc1` (stereo not shown) [Compound 129, 2-((4-methoxyphenyl)sulfinyl)-1-(5-(5-(trifluoromethyl)-1,2,4-oxadiazol-3-yl)pyridin-2-yl)ethan-1-one] displayed an inhibition of growth at 300 ppm with Colletotrichum capsici of at least 70%. For the compound `O=C(CSc1ccncc1)c1ccc(-c2noc(C(F)(F)F)n2)cc1` [Compound 68, 2-(pyridin-4-ylthio)-1-(4-(5-(trifluoromethyl)-1,2,4-oxadiazol-3-yl)phenyl)ethan-1-one], the inhibition of growth at 300 ppm in the experiment with Alternaria solani was at least 70%. For the compound `O=C(C[S+]([O-])Cc1ccccc1)c1ccc(-c2noc(C(F)(F)F)n2)cc1` (stereo not shown) [Compound 80, 2-(benzylsulfinyl)-1-(4-(5-(trifluoromethyl)-1,2,4-oxadiazol-3-yl)phenyl)ethan-1-one], the inhibition of growth at 300 ppm in the experiment with Alternaria solani and with Pyricularia oryzae was at least 70% in each case. `O=C(CSc1ncn[nH]1)c1ccc(-c2noc(C(F)(F)F)n2)cc1` [Compound 149, 2-((1H-1,2,4-triazol-5-yl)thio)-1-(4-(5-(trifluoromethyl)-1,2,4-oxadiazol-3-yl)phenyl)ethan-1-one]: the inhibition of growth at 300 ppm in the experiment with Alternaria solani, in the experiment on Colletotrichum capsici and with Pyricularia oryzae was at least 70% in each case. For orientation: pest or weed control means the degree to which the test organism was suppressed or injured, in per cent. The low end stands for a weak effect, the high end for a strong effect. In turn, `O=C(CNc1ccc(F)c(F)c1)c1ccc(-c2noc(C(F)(F)F)n2)cc1` [Compound 27, 2-((3,4-difluorophenyl)amino)-1-(4-(5-(trifluoromethyl)-1,2,4-oxadiazol-3-yl)phenyl)ethan-1-one] returned an inhibition of growth at 300 ppm with Alternaria solani of at least 70%. In the experiment with Phakopsora pachyrhizi, the pest or weed control at 500 ppm is at least 70%. Regarding `COc1ccc(NCC(=O)c2ccc(-c3noc(C(F)(F)F)n3)cc2)cc1` [Compound 145, 2-((4-methoxyphenyl)amino)-1-(4-(5-(trifluoromethyl)-1,2,4-oxadiazol-3-yl)phenyl)ethan-1-one], the inhibition of growth at 300 ppm in the experiment on Colletotrichum capsici and in the experiment with Pyricularia oryzae was at least 70% in each case. On to `O=C(CSC1CCCC1)c1ccc(-c2noc(C(F)(F)F)n2)cn1` [Compound 119, 2-(cyclopentylthio)-1-(5-(5-(trifluoromethyl)-1,2,4-oxadiazol-3-yl)pyridin-2-yl)ethan-1-one], for which the inhibition of growth at 300 ppm in the experiment with Alternaria solani and in the experiment on Pyricularia oryzae was at least 70% each time.

As to `Cc1ccc(Cl)cc1OCC(=O)c1ccc(-c2noc(C(F)(F)F)n2)cc1` [Compound 17, 2-(5-chloro-2-methylphenoxy)-1-(4-(5-(trifluoromethyl)-1,2,4-oxadiazol-3-yl)phenyl)ethan-1-one], in the experiment on Alternaria solani, the inhibition of growth at 300 ppm was at least 70%. In the experiment on Phakopsora pachyrhizi, this compound gave a pest or weed control at 500 ppm of at least 70%. With `Cc1nnc(SCC(=O)c2ccc(-c3noc(C(F)(F)F)n3)cc2)o1` [Compound 150, 2-((5-methyl-1,3,4-oxadiazol-2-yl)thio)-1-(4-(5-(trifluoromethyl)-1,2,4-oxadiazol-3-yl)phenyl)ethan-1-one], the inhibition of growth at 300 ppm with Alternaria solani and in the experiment with Pyricularia oryzae was at least 70% throughout. As to `O=C(CNc1cccc(C(F)(F)F)c1)c1ccc(-c2noc(C(F)(F)F)n2)cc1` [Compound 141, 1-(4-(5-(trifluoromethyl)-1,2,4-oxadiazol-3-yl)phenyl)-2-((3-(trifluoromethyl)phenyl)amino)ethan-1-one], the inhibition of growth at 300 ppm with Colletotrichum capsici was at least 70%. Take `O=C(C[S+]([O-])c1c(Cl)cccc1Cl)c1ccc(-c2noc(C(F)(F)F)n2)cn1` (stereo not shown) [Compound 132, 2-((2,6-dichlorophenyl)sulfinyl)-1-(5-(5-(trifluoromethyl)-1,2,4-oxadiazol-3-yl)pyridin-2-yl)ethan-1-one]: in the experiment on Alternaria solani, the inhibition of growth at 300 ppm is at least 70%.

Take `O=C(CS(=O)(=O)c1ccncc1)c1ccc(-c2noc(C(F)(F)F)n2)cc1` [Compound 112, 2-(pyridin-4-ylsulfonyl)-1-(4-(5-(trifluoromethyl)-1,2,4-oxadiazol-3-yl)phenyl)ethan-1-one]: the inhibition of growth at 300 ppm in the experiment with Alternaria solani and in the experiment with Pyricularia oryzae was at least 70% throughout. In the experiment with Phakopsora pachyrhizi, `O=C(COc1ccc(Br)nc1)c1ccc(-c2noc(C(F)(F)F)n2)cc1` [Compound 49, 2-((6-bromopyridin-3-yl)oxy)-1-(4-(5-(trifluoromethyl)-1,2,4-oxadiazol-3-yl)phenyl)ethan-1-one] had a pest or weed control at 500 ppm of at least 70%. Moreover, the inhibition of growth at 300 ppm in the experiment on Pyricularia oryzae was at least 70%. `Cc1ccccc1OCC(=O)c1ccc(-c2noc(C(F)(F)F)n2)cc1` [Compound 39, 2-(o-tolyloxy)-1-(4-(5-(trifluoromethyl)-1,2,4-oxadiazol-3-yl)phenyl)ethan-1-one] came in with an inhibition of growth at 300 ppm in the experiment on Alternaria solani of at least 70%.

`O=C(C[S+]([O-])C1CCCC1)c1ccc(-c2noc(C(F)(F)F)n2)cn1` (stereo not shown) [Compound 133, 2-(cyclopentylsulfinyl)-1-(5-(5-(trifluoromethyl)-1,2,4-oxadiazol-3-yl)pyridin-2-yl)ethan-1-one]: the inhibition of growth at 300 ppm in the experiment on Alternaria solani and in the experiment with Pyricularia oryzae was at least 70% in each case. With `CC(C)SCC(=O)c1ccc(-c2noc(C(F)(F)F)n2)cc1` [Compound 69, 2-(isopropylthio)-1-(4-(5-(trifluoromethyl)-1,2,4-oxadiazol-3-yl)phenyl)ethan-1-one], the inhibition of growth at 300 ppm in the experiment with Alternaria solani and in the experiment on Pyricularia oryzae was at least 70% in each case. Compound `O=C(COc1ccccc1F)c1ccc(-c2noc(C(F)(F)F)n2)cn1` [Compound 114, 2-(2-fluorophenoxy)-1-(5-(5-(trifluoromethyl)-1,2,4-oxadiazol-3-yl)pyridin-2-yl)ethan-1-one] returned a control in the experiment on Botrytis cinerea of at least 70%. Also, the inhibition of growth at 300 ppm with Pyricularia oryzae is at least 70%. As to `CC(C)(C)[S+]([O-])CC(=O)c1ccc(-c2noc(C(F)(F)F)n2)cc1` (stereo not shown) [Compound 91, 2-(tert-butylsulfinyl)-1-(4-(5-(trifluoromethyl)-1,2,4-oxadiazol-3-yl)phenyl)ethan-1-one], the inhibition of growth at 300 ppm in the experiment on Alternaria solani and in the experiment with Pyricularia oryzae was at least 70% each time.

`O=C(COc1cccnc1)c1ccc(-c2noc(C(F)(F)F)n2)cc1` [Compound 21, 2-(pyridin-3-yloxy)-1-(4-(5-(trifluoromethyl)-1,2,4-oxadiazol-3-yl)phenyl)ethan-1-one]: the inhibition of growth at 300 ppm in the experiment on Alternaria solani is at least 70%. Also, the pest or weed control at 500 ppm in the experiment on Phakopsora pachyrhizi was at least 70%. In the case of `O=C(COc1cc(Cl)cc(Cl)c1)c1ccc(-c2noc(C(F)(F)F)n2)cc1` [Compound 15, 2-(3,5-dichlorophenoxy)-1-(4-(5-(trifluoromethyl)-1,2,4-oxadiazol-3-yl)phenyl)ethan-1-one], the pest or weed control at 500 ppm in the experiment with Phakopsora pachyrhizi is at least 70%. This compound also came in with an inhibition of growth at 300 ppm in the experiment on Colletotrichum capsici of at least 70%. Turning to `Cc1ccccc1NCC(=O)c1ccc(-c2noc(C(F)(F)F)n2)cc1` [Compound 146, 2-(o-tolylamino)-1-(4-(5-(trifluoromethyl)-1,2,4-oxadiazol-3-yl)phenyl)ethan-1-one], in the experiment on Colletotrichum capsici, the inhibition of growth at 300 ppm was at least 70%. In the experiment on Colletotrichum capsici, `Cc1cccc(NCC(=O)c2ccc(-c3noc(C(F)(F)F)n3)cc2)c1` [Compound 144, 2-(m-tolylamino)-1-(4-(5-(trifluoromethyl)-1,2,4-oxadiazol-3-yl)phenyl)ethan-1-one] returned an inhibition of growth at 300 ppm of at least 70%.

For `O=C(C[S+]([O-])c1cccc(F)c1)c1ccc(-c2noc(C(F)(F)F)n2)cn1` (stereo not shown) [Compound 128, 2-((3-fluorophenyl)sulfinyl)-1-(5-(5-(trifluoromethyl)-1,2,4-oxadiazol-3-yl)pyridin-2-yl)ethan-1-one], the inhibition of growth at 300 ppm in the experiment on Alternaria solani and in the experiment on Pyricularia oryzae was at least 70% in each case.

Consider `Cc1ccccc1SCC(=O)c1ccc(-c2noc(C(F)(F)F)n2)cc1` [Compound 66, 2-(o-tolylthio)-1-(4-(5-(trifluoromethyl)-1,2,4-oxadiazol-3-yl)phenyl)ethan-1-one], for which the pest or weed control at 500 ppm in the experiment on Phakopsora pachyrhizi was at least 70%. Besides, in the experiment on Pyricularia oryzae, the inhibition of growth at 300 ppm was at least 70%. For `O=C(COc1ccc(F)cc1F)c1ccc(-c2noc(C(F)(F)F)n2)cc1` [Compound 18, 2-(2,4-difluorophenoxy)-1-(4-(5-(trifluoromethyl)-1,2,4-oxadiazol-3-yl)phenyl)ethan-1-one], in the experiment with Alternaria solani, the inhibition of growth at 300 ppm was at least 70%. Moreover, the pest or weed control at 500 ppm with Phakopsora pachyrhizi was at least 70%. Regarding `C=CCSCC(=O)c1ccc(-c2noc(C(F)(F)F)n2)cc1` [Compound 61, 2-(allylthio)-1-(4-(5-(trifluoromethyl)-1,2,4-oxadiazol-3-yl)phenyl)ethan-1-one], in the experiment with Alternaria solani, the inhibition of growth at 300 ppm was at least 70%. Turning to `CN1CCN(CC(=O)c2ccc(-c3noc(C(F)(F)F)n3)cc2)CC1` [Compound 135, 2-(4-methylpiperazin-1-yl)-1-(4-(5-(trifluoromethyl)-1,2,4-oxadiazol-3-yl)phenyl)ethan-1-one], the inhibition of growth at 300 ppm with Alternaria solani and in the experiment with Colletotrichum capsici was at least 70% in each case. For the same compound, in the experiment on Phakopsora pachyrhizi, the pest or weed control at 500 ppm is at least 70%.
